# Laboratory results from patent US11439707B2, “Hypocrellin derivative substituted both in a peri-position and in 2-position by amino, preparation method, and application thereof” (priority 2017, dated 2022).
# Entries after “also recorded” stand apart in the source; their conditions may differ.
# Key:
# Hela cells [1] = experiment: photo-cytotoxicity experiment (MTT, 635 nm laser); assay type: cell-based
# Procedure: Photo-cytotoxicity experiment on cell: cultured Hela cells were digested and pipetted with 0.25% trypsin and to prepare a single-cell suspension, the number of cells was adjusted to about 2×10^4 per milliliter, and 200 uL of the suspension was seeded in a well of a 96-well culture plate, which is placed in a 37° C. incubator containing 5% CO2 for cultivation. After the cells adhere to the wall, a supernatant culture solution was discarded, and photosensitizers of different concentrations, that is, the hematoporphyrin derivative HpD, the hypocrellin B HB, or HB-1c-PEG6 synthesized in example 3, were added in a strictly lucifugous condition in accordance with experimental designs, and the culture plate was placed in the 37° C. incubator containing 5% CO2 for further cultivation and incubation for 1 hour. Then, a semiconductor laser with a wavelength of 635 nm was used for irradiation, a power density was adjusted to 20 mW/cm^2, light beams were evenly and vertically applied onto the 96-well culture plate, and an irradiation time was 1000 S. In addition, each 96-well culture plate is provided with a blank group, and 6 holes were provided for in each condition. After irradiation, the culture plate was placed in the 37° C. incubator containing 5% CO2 for further cultivation and incubation for 24 hours, and then a cellular survival rate was measured. The cellular survival rate was measured by means of the MTT method. 20 uL of MTT was added to each well, wherein the MTT is MTT prepared with PBS and having a concentration of 5 mg/ml. The culture plate was placed in the 37° C. incubator containing 5% CO2 for further cultivation for 4 hours, after which the cultivation was terminated. A supernatant in the well was extracted and discarded carefully. Then, 150 uL of dimethyl sulfoxide (DMSO) was added to each well, and the culture plate was shaken by using a micro shaker for 10 minutes to fully dissolve a purple crystal substance. A wavelength of 570 nm was selected to measure an optical density value (i.e., OD value) of each well on a microplate reader, and the cellular survival rate was calculated in accordance with the following formula: cellular survival rate=OD value of an experimental group/OD value of a blank group×100%.
# [2] = absorption spectrum (maximum absorption wavelength, molar extinction coefficient); assay type: physicochemical
# [3] = water solubility in normal saline; assay type: physicochemical; settings: per milliliter of normal saline
# Procedure: Most of photosensitizer molecules disclosed in this patent contain a large number of hydrophilic groups, such as a polyethylene glycol chain, a quaternary ammonium salt, a carboxyl group, and a sulfonic acid group, etc., making the photosensitizer molecules have very high water solubility in a physiological condition; and experiments indicate that each milliliter of normal saline or glucose injection can dissolve more than 5 mg of such the photosensitizer molecules, presenting excellent water solubility. Therefore, the photosensitive drug can be well transported in blood vessels during intravenous injection, without causing a vascular blockage. HB-1c-C2-N+ prepared in example 4 contains two quaternary ammonium salts, and each milliliter of normal saline can dissolve more than 20 mg of photosensitizer molecules; HC-1c-PEG6 prepared in example 6 contains two 6-PEG chains, and each milliliter of normal saline can dissolve more than 20 mg of photosensitizer molecules; HB-8c prepared in example 19 contains two carboxyl groups, and each milliliter of normal saline can dissolve more than 10 mg of photosensitizer molecules; HB-13c prepared in example 35 contains two carboxyl groups, and each milliliter of normal saline can dissolve more than 10 mg of photosensitizer molecules; and HB-13c-PEG8 prepared in example 37 contains two 8-PEG chains, and each milliliter of normal saline can dissolve more than 20 mg of photosensitizer molecules. These photosensitizer molecules all present excellent water solubility.
# [4] = singlet oxygen efficiency test, reference rose bengal; assay type: physicochemical; settings: for singlet oxygen efficiencies: comparison with reference rose bengal RB, FIG. 7
# Hela cells [5] = experiment: dark cytotoxicity experiment (MTT); settings: for cytotoxicity when not exposed to light: dark
# Procedure: Dark cytotoxicity experiment: cultured Hela cells were digested with 0.25% trypsin and pipetted to prepare a single-cell suspension, the number of cells was adjusted to about 2×10^4 per milliliter, and 200 uL of the suspension was seeded in a well of a 96-well culture plate, which is placed in a 37° C. incubator containing 5% CO2 for cultivation. […] A cellular survival rate was measured by means of the MTT method. 20 uL of MTT was added to each well, wherein the MTT is MTT prepared with PBS and having a concentration of 5 mg/ml. The culture plate was placed in the 37° C. incubator containing 5% CO2 for further cultivation for 4 hours, after which the cultivation was terminated. A supernatant in the well was extracted and discarded carefully. Then, 150 uL of dimethyl sulfoxide was added to each well, and the culture plate was shaken by using a micro shaker for 10 minutes to fully dissolve a purple crystal substance. A wavelength of 570 nm was selected to measure an optical density value (i.e., OD value) of each well on a microplate reader, and the cellular survival rate was calculated in accordance with the following formula: cellular survival rate=OD value of an experimental group/OD value of a blank group×100%.
# [6] = photostability under 635 nm laser irradiation; assay type: physicochemical; settings: 30 min, 20 mW/cm^2, FIG. 9
# Procedure: FIG. 9 is a comparison diagram of photostabilities of the hypocrellin derivative prepared in the present invention and a commercial photosensitizer. […] However, in the same condition, after being irradiated with a 635 nm laser for 30 min at a light intensity of 20 mW/cm^2, maximum absorption performance of the commercial porphin photosensitizer Ce6 is decreased by 30% (curve c); and an absorption spectrum of the commercial hematoporphyrin photosensitizer HpD is decreased more, reaching about 50% (curve d). Therefore, in the same condition, the hypocrellin derivative prepared in the present invention has a better photostability than the commercial photosensitizers.
# [7] = reactive oxygen measurement with singlet oxygen and superoxide radical scavengers; assay type: physicochemical; settings: FIG. 6(a), 6(b)
# Text: FIGS. 7(a)-7(d) show efficiency curves of measuring singlet oxygen of HB-1c and HC-1c. From the comparison with a reference rose bengal RB, it can be seen that the singlet oxygen efficiencies of HB-1c and HC-1c are respectively 0.40 and 0.38.
# [8] = pH stability of absorption spectrum; assay type: physicochemical; settings: pH range of 6.2-8.0, FIG. 8
# Text: Therefore, the hypocrellin derivative prepared in the present invention has a better pH stability than the commercial hematoporphyrin HpD in the pH range of 6.2-8.0.
# singlet oxygen in a cell = experiment: detection of singlet oxygen in a cell with fluorescence probe DCFH-DA; assay type: cell-based; settings: co-incubation with DCFH-DA, irradiation time to 60 s, FIG. 11
# Text: DCFH-DA is used to detect singlet oxygen in a cell.
# [9] = 160 nM, 635 nm laser, FIG. 12(b)
# [10] = 240 nM, 635 nm red light, FIG. 16(b)
Structure (SMILES),maximum absorption wavelength [2] [nm],singlet oxygen yield [4] [%],molar extinction coefficient [2],also measured
"COc1c(O)c2c(=O)cc(OC)c3c4c(OC)cc(=O)c5c(O)c(OC)c6c(c(c1CC(C)=C6C(C)=O)c23)c54 [HB, hypocrellin B]",450,–,–,"Hela cells killed (Hela cells [1]; [9]): about 30%; Hela cells killed (Hela cells [1]; 160 nM, 635 nm laser, FIG. 12(b), listed as hypocrellin B): about 20%; Hela cells killed (Hela cells [1]; 160 nM, red light, FIG. 17(b)): 30%; Hela cells killed (Hela cells [1]; 200 nM, red light, FIG. 18(b)): 60%; Hela cells killed (Hela cells [1]; [10]): 30%"
COc1c2c3c4c(c(NCC5CCC(C(=O)O)CC5)c(=O)c5c(NCC6CCC(C(=O)O)CC6)cc(OC)c(c6c(OC)cc(O)c(c1=O)c63)c54)C=C(C)C2C(C)=O (centres unmarked) [HB-13c],621,30,"29,500 M^−1cm^−1",amount dissolved by each milliliter of normal saline [3]: more than 10 mg; Hela cells killed (Hela cells [1]; [10]): more than 85%
COc1c2c3c4c(c(NCCCC(=O)O)c(=O)c5c(NCCCC(=O)O)cc(OC)c(c6c(OC)cc(O)c(c1=O)c63)c54)C=C(C)C2 [HC-8c],618,27,"28,500 M^−1cm^−1","Hela cells killed (Hela cells [1]; 200 nM, 635 nm light, FIG. 14(b)): more than 85%"
COCCOCCOCCOCCOCCOCCOC(=O)CCCNc1c2c3c4c(c(OC)c(=O)c5c(O)cc(OC)c(c6c(OC)cc(NCCCC(=O)OCCOCCOCCOCCOCCOCCOC)c(c1=O)c63)c54)CC(C)=C2 [HC-8c-PEG6],632,36,"31,500 M^−1cm^−1","Hela cells killed (Hela cells [1]; 240 nM, 635 nm light, FIG. 15(b)): more than 90%; cytotoxicity when not exposed to light (Hela cells [5]): almost no cytotoxicity"
COCCOCCOCCOCCOCCOCCOCCC(=O)OCCOCCNc1c2c3c4c(c(OC)c(=O)c5c(O)cc(OC)c(c6c(OC)cc(NCCOCCOC(=O)CCOCCOCCOCCOCCOCCOCCOC)c(c1=O)c63)c54)C(C(C)=O)C(C)=C2 (centres unmarked) [HB-1c-PEG6],628,34,"34,500 M^−1cm^−1","Hela cells killed (Hela cells [1]; [9]): more than 90%; cytotoxicity (dark toxicity) (Hela cells [5]; 10 μM, incubated half hour, FIG. 12(a)): basically non-cytotoxic"
COCCOCCOCCOCCOCCOCCOCCOCCOCCNC(=O)C1CCC(CNc2c3c4c5c(c(OC)c(=O)c6c(O)cc(OC)c(c7c(OC)cc(NCC8CCC(C(=O)NCCOCCOCCOCCOCCOCCOCCOCCOCCOC)CC8)c(c2=O)c74)c65)CC(C)=C3)CC1 (centres unmarked) [HC-13c-NH-PEG8],630,38,"33,500 M^−1cm^−1","Hela cells killed (Hela cells [1]; 200 nM, red light, FIG. 18(b)): more than 85%"
COc1c2c3c4c(c(NCCCC(=O)O)c(=O)c5c(NCCCC(=O)O)cc(OC)c(c6c(OC)cc(O)c(c1=O)c63)c54)C=C(C)C2C(C)=O (centres unmarked) [HB-8c],620,30,"29,500 M^−1cm^−1",amount dissolved by each milliliter of normal saline [3]: more than 10 mg
COc1c2c3c4c(c(NCCO)c(=O)c5c(NCCO)cc(OC)c(c6c(OC)cc(O)c(c1=O)c63)c54)C=C(C)C2 [HC-2c],636,40,"31,000 M^−1cm^−1",decrease of absorption intensity at the maximum wavelength [6]: less than 10%
COc1c2c3c4c(c(NCCOCCO)c(=O)c5c(NCCOCCO)cc(OC)c(c6c(OC)cc(O)c(c1=O)c63)c54)C=C(C)C2C(C)=O (centres unmarked) [HB-1c],–,–,–,photosensitive reactive species produced [7]: primarily producing singlet oxygen; singlet oxygen efficiencies [4]: 0.40
COCCOCCOCCOCCOCCOCCOCCC(=O)OCCNc1c2c3c4c(c(OC)c(=O)c5c(NCCOC(=O)CCOCCOCCOCCOCCOCCOCCOC)cc(OC)c(c6c(OC)cc(O)c(c1=O)c63)c54)CC(C)=C2 [HC-2d-PEG6],624,32,"31,500 M^−1cm^−1",decrease of absorption intensity at the maximum wavelength [6]: less than 10%
"C=Cc1c(C)c2cc3nc(c(CC(=O)O)c4[nH]c(cc5nc(cc1[nH]2)C(C)=C5CC)c(C)c4C(=O)O)[C@@H](CCC(=O)O)[C@@H]3C [Ce6, reference compound]",650,–,less than 20000 M^−1cm^−1,decrease of absorption intensity at the maximum wavelength [6]: 30%
COc1c2c3c4c(c(NCCOCCO)c(=O)c5c(NCCOCCO)cc(OC)c(c6c(OC)cc(O)c(c1=O)c63)c54)C=C(C)C2 [HC-1c],–,38,"30,000 M^−1cm^−1","pH stability, change in absorption spectrum [8]: no obvious change; singlet oxygen efficiencies [4]: 0.38"
COc1c(O)c2c(=O)cc(OC)c3c4c(OC)cc(=O)c5c(NCCCC(=O)O)c(NCCCC(=O)O)c6c(c(c1C(C(C)=O)C(C)=C6)c23)c54 (centres unmarked) [HB-8a],622,25,"27,500 M^−1cm^−1",amount dissolved by each milliliter of normal saline [3]: more than 5 mg
COCCOCCOCCOCCOCCOCCOCCC(=O)OCCOCCNc1c2c3c4c(c(OC)c(=O)c5c(O)cc(OC)c(c6c(OC)cc(NCCOCCOC(=O)CCOCCOCCOCCOCCOCCOCCOC)c(c1=O)c63)c54)CC(C)=C2 [HC-1c-PEG6],628,34,"33,500 M^−1cm^−1","amount dissolved by each milliliter of normal saline [3]: more than 20 mg; singlet oxygen in the cell (DCFH-DA green fluorescence) (singlet oxygen in a cell): green fluorescence intensity is gradually increased; Hela cells killed (Hela cells [1]; 140 nM, 635 nm light, FIG. 13(b)): more than 90%; pH stability, change in absorption spectrum [8]: good pH stability; also recorded: no obvious change; cytotoxicity when not exposed to light (Hela cells [5]): almost no cytotoxicity"
